Biological target: T1, human vasopressin V1a receptor subtype (Homo sapiens, UniProt P37288)
T1 construct: host or cells: CHO cells (pZeoSV vector for the Thibonnier line)
Test: Vasopressin binding in Chinese Hamster Ovary cell membranes expressing human vasopressin V1a subtype receptors
Details: 100 nM, CHO cell membranes, [3H]Manning ligand, values without parentheses
Summary of the method: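 Membranes from CHO cells expressing human V1a receptor were incubated with [3H]Manning ligand (added as 20 μL of 8 nM) in pH 7.4 Tris buffer with MgCl2, BSA and protease inhibitors, 60 min at room temperature. Bound radioactivity was counted after filtration; values are percent inhibition at a stated concentration or IC50.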

T1 sequence (P37288 whole entry): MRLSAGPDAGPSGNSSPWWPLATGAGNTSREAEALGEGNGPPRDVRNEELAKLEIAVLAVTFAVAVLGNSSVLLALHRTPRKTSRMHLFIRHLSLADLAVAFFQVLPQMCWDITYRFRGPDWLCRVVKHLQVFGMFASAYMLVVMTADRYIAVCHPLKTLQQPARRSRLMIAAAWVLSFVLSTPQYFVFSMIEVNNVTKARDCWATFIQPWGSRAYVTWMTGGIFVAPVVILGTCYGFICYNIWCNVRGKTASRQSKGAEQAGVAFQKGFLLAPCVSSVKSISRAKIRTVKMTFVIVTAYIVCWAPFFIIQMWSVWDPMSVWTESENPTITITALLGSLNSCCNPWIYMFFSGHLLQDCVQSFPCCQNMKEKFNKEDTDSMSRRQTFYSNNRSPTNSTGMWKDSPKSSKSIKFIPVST

inhibition at 0.1 µM [%]	Compound
20	COc1cccc(-c2ccc(C(=O)N3Cc4ccc(C(=O)N5CCN(CCN6CCOCC6)CC5)n4Cc4ccccc43)cc2C)c1 [Example 208, {10-[(3′-Methoxy-2-methyl[1,1′-biphenyl]-4-yl)carbonyl]-10,11-dihydro-5H-pyrrolo[2,1-c][1,4]benzodiazepin-3-yl}{4-[2-(4-morpholinyl)ethyl]-1-piperazinyl}methanone]
10	Cc1cc(C(=O)N2Cc3ccc(C(=O)N4CCN(CCN5CCOCC5)CC4)n3Cc3ccccc32)ccc1-c1ccccc1C(F)(F)F [Example 216, (10-{[2-Methyl-2′-(trifluoromethyl)[1,1′-biphenyl]-4-yl]carbonyl}-10,11-dihydro-5H -pyrrolo[2,1-c][1,4]benzodiazepin-3-yl){4-[2-(4-morpholinyl)ethyl]-1-piperazinyl}methanone]
23	Cc1cc(C(=O)N2Cc3ccc(C(=O)N(C)C4CCN(C)C4)n3Cc3ccccc32)ccc1-c1ccccc1C(F)(F)F (stereo not shown) [Example 194, N-Methyl-N-(1-methyl-3-pyrrolidinyl)-10-{[2-methyl-2′-(trifluoromethyl)[1,1′-biphenyl]-4-yl]carbonyl}-10,11-dihydro-5H-pyrrolo[2,1-c][1,4]benzodiazepine-3-carboxamide]
18	COc1ccccc1-c1ccc(C(=O)N2Cc3ccc(C(=O)NCCC4CCCN4C)n3Cc3ccccc32)cc1C (stereo not shown) [Example 162, 10-[(2′-Methoxy-2-methyl[1,1′-biphenyl]-4-yl)carbonyl]-N-[2-(1-methyl-2-pyrrolidinyl)ethyl]-10,11-dihydro-5H-pyrrolo[2,1-c][1,4]benzodiazepine-3-carboxamide]
31	COc1cc(C(=O)N2Cc3ccc(C(=O)N(C)C4CCN(C)C4)n3Cc3ccccc32)ccc1-c1cccc2ccccc12 (stereo not shown) [Example 192, 10-[3-Methoxy-4-(1-naphthyl)benzoyl]-N-methyl-N-(1-methyl-3-pyrrolidinyl)-10,11-dihydro-5H-pyrrolo[2,1-c][1,4]benzodiazepine-3-carboxamide]
43	Cc1ccccc1-c1ccc(C(=O)N2Cc3ccc(C(=O)NCCC4CCCN4C)n3Cc3ccccc32)cc1C (stereo not shown) [Example 163, 10-[(2,2′-Dimethyl[1,1′-biphenyl]-4-yl)carbonyl]-N-[2-(1-methyl-2-pyrrolidinyl)ethyl]-10,11-dihydro-5H-pyrrolo[2,1-c][1,4]benzodiazepine-3-carboxamide]
24	COc1ccccc1-c1ccc(C(=O)N2Cc3ccc(C(=O)NCCC4CCCN4C)n3Cc3ccccc32)cc1 (stereo not shown) [Example 165, 10-[(2′-Methoxy[1,1′-biphenyl]-4-yl)carbonyl]-N-[2-(1-methyl-2-pyrrolidinyl)ethyl]-10,11-dihydro-5H-pyrrolo[2,1-c][1,4]benzodiazepine-3-carboxamide]
14	COc1cc(C(=O)N2Cc3ccc(C(=O)N(C)C4CCN(C)CC4)n3Cc3ccccc32)ccc1-c1cccc2ccccc12 [Example 182, 10-[3-Methoxy-4-(1-naphthyl)benzoyl]-N-methyl-N-(1-methyl-4-piperidinyl)-10,11-dihydro-5H-pyrrolo[2,1-c][1,4]benzodiazepine-3-carboxamide]
2	COc1cccc(-c2cc(OC)c(C(=O)N3Cc4ccc(C(=O)N5CCN(C(C)C)CC5)n4Cc4ccccc43)cc2Cl)c1 [Example 239, {10-[(6-Chloro-3,3′-dimethoxy[1,1′-biphenyl]-4-yl)carbonyl]-10,11-dihydro-5H-pyrrolo[2,1-c][1,4]benzodiazepin-3-yl}(4-isopropyl-1-piperazinyl)methanone]
9	COc1cccc(-c2ccc(C(=O)N3Cc4ccc(C(=O)N5CCN(C(C)C)CC5)n4Cc4ccccc43)cc2C)c1 [Example 235, (4-Isopropyl-1-piperazinyl){10-[(3′-methoxy-2-methyl[1,1′-biphenyl]-4-yl)carbonyl]-10,11-dihydro-5H-pyrrolo[2,1-c][1,4]benzodiazepin-3-yl}methanone]
13	COc1ccccc1-c1ccc(C(=O)N2Cc3ccc(C(=O)N4CCN(C(C)C)CC4)n3Cc3ccccc32)cc1C [Example 232, (4-Isopropyl-1-piperazinyl){10-[(2′-methoxy-2-methyl[1,1′-biphenyl]-4-yl)carbonyl]-10,11-dihydro-5H-pyrrolo[2,1-c][1,4]benzodiazepin-3-yl}methanone]
8	COc1ccccc1-c1ccc(C(=O)N2Cc3ccc(C(=O)N4CCN(CCN5CCOCC5)CC4)n3Cc3ccccc32)cc1OC [Example 214, {10-[(2,2′-Dimethoxy[1,1′-biphenyl]-4-yl)carbonyl]-10,11-dihydro-5H-pyrrolo[2,1-c][1,4]benzodiazepin-3-yl}{4-[2-(4-morpholinyl)ethyl]-1-piperazinyl}methanone]
8	COc1cc(-c2ccccc2C)c(Cl)cc1C(=O)N1Cc2ccc(C(=O)NCCC3CCCN3C)n2Cc2ccccc21 (stereo not shown) [Example 168, 10-[(6-Chloro-3-methoxy-2′-methyl[1,1′-biphenyl]-4-yl)carbonyl]-N-[2-(1-methyl-2-pyrrolidinyl)ethyl]-10,11-dihydro-5H-pyrrolo[2,1-c][1,4]benzodiazepine-3-carboxamide]
53	COc1cccc(-c2ccc(C(=O)N3Cc4ccc(C(=O)N(C)C5CCN(C)C5)n4Cc4ccccc43)cc2C)c1 (stereo not shown) [Example 186, 10-[(3′-Methoxy-2-methyl[1,1′-biphenyl]-4-yl)carbonyl]-N-methyl-N-(1-methyl-3-pyrrolidinyl)-10,11-dihydro-5H-pyrrolo[2,1-c][1,4]benzodiazepine-3-carboxamide]
-6	CN(C)CCN1CCN(C(=O)c2ccc3n2Cc2ccccc2N(C(=O)c2ccc(-c4cccc5ccccc45)cc2Cl)C3)CC1 [Example 205, {10-[2-Chloro-4-(1-naphthyl)benzoyl]-10,11-dihydro-5H-pyrrolo[2,1-c][1,4]benzodiazepin-3-yl}{4-[2-(dimethylamino)ethyl]-1-piperazinyl}methanone]
35	C=CCN1CCN(C(=O)c2ccc3n2Cc2ccccc2N(C(=O)c2ccc(-c4ccccc4C)c(OC)c2)C3)CC1 [Example 225, (4-Allyl-1-piperazinyl){10-[(2-methoxy-2′-methyl[1,1′-biphenyl]-4-yl)carbonyl]-10,11-dihydro-5H-pyrrolo[2,1-c][1,4]benzodiazepin-3-yl}methanone]
2	COc1cccc(-c2cc(OC)c(C(=O)N3Cc4ccc(C(=O)NCCN5CCCCC5)n4Cc4ccccc43)cc2Cl)c1 [Example 156, 10-[(6-Chloro-3,3′-dimethoxy[1,1′-biphenyl]-4-yl)carbonyl]-N-[2-(1-piperidinyl)ethyl]-10,11-dihydro-5H-pyrrolo[2,1-c][1,4]benzodiazepine-3-carboxamide]
5	COc1cc(C(=O)N2Cc3ccc(C(=O)NCCN4CCCCC4)n3Cc3ccccc32)ccc1-c1cccc2ccccc12 [Example 157, 10-[3-Methoxy-4-(1-naphthyl)benzoyl]-N-[2-(1-piperidinyl)ethyl]-10,11-dihydro-5H-pyrrolo[2,1-c][1,4]benzodiazepine-3-carboxamide]
3	C=CCN1CCN(C(=O)c2ccc3n2Cc2ccccc2N(C(=O)c2ccc(-c4ccccc4C(F)(F)F)c(C)c2)C3)CC1 [Example 230, (4-Allyl-1-piperazinyl)(10-{[2-methyl-2′-(trifluoromethyl)[1,1′-biphenyl]-4-yl]carbonyl}-10,11-dihydro-5H-pyrrolo[2,1-c][1,4]benzodiazepin-3-yl)methanone]
29	Cc1ccccc1-c1ccc(C(=O)N2Cc3ccc(C(=O)NCCC4CCCN4C)n3Cc3ccccc32)cc1 (stereo not shown) [Example 166, 10-[(2′-Methyl[1,1′-biphenyl]-4-yl)carbonyl]-N-[2-(1-methyl-2-pyrrolidinyl)ethyl]-10,11-dihydro-5H-pyrrolo[2,1-c][1,4]benzodiazepine-3-carboxamide]
10	COc1ccccc1-c1ccc(C(=O)N2Cc3ccc(C(=O)O)n3Cc3ccccc32)cc1C [Example 9, 10-[(2′-Methoxy-2-methyl-[1,1′-biphenyl]-4-yl)carbonyl]-10,11-dihydro-5H-pyrrolo[2,1-c][1,4]benzodiazepine-3-carboxylic acid]
14	COc1ccccc1-c1ccc(C(=O)N2Cc3ccc(C(=O)NCCC4CCCN4C)n3Cc3ccccc32)cc1OC (stereo not shown) [Example 171, 10-[(2,2′-Dimethoxy[1,1′-biphenyl]-4-yl)carbonyl]-N-[2-(1-methyl-2-pyrrolidinyl)ethyl]-10,11-dihydro-5H-pyrrolo[2,1-c][1,4]benzodiazepine-3-carboxamide]
8	Cc1cc(C(=O)N2Cc3ccc(C(=O)NCCC4CCCN4C)n3Cc3ccccc32)ccc1-c1ccccc1C(F)(F)F (stereo not shown) [Example 174, N-[2-(1-Methyl-2-pyrrolidinyl)ethyl]-10-{[2-methyl-2′-(trifluoromethyl)[1,1′-biphenyl]-4-yl]carbonyl}-10,11-dihydro-5H-pyrrolo[2,1-c][1,4]benzodiazepine-3-carboxamide]
4	COc1cc(C(=O)N2Cc3ccc(C(=O)N4CCN(CCN(C)C)CC4)n3Cc3ccccc32)ccc1-c1cccc2ccccc12 [Example 203, {4-[2-(Dimethylamino)ethyl]-1-piperazinyl}{10-[3-methoxy-4-(1-naphthyl)benzoyl]-10,11-dihydro-5H-pyrrolo[2,1-c][1,4]benzodiazepin-3-yl}methanone]
21	COc1cc(C(=O)N2Cc3ccc(C(=O)NCCC4CCCN4C)n3Cc3ccccc32)ccc1-c1cccc2ccccc12 (stereo not shown) [Example 170, 10-[3-Methoxy-4-(1-naphthyl)benzoyl]-N-[2-(1-methyl-2-pyrrolidinyl)ethyl]-10,11-dihydro-5H-pyrrolo[2,1-c][1,4]benzodiazepine-3-carboxamide]
